Laboratory results reported in patent EP4647082A1, “PHARMACEUTICAL COMPOSITION COMPRISING A CGRP RECEPTOR ANTAGONIST FOR THE TREATMENT OF ACUTE MIGRAINE” (NUVIE BIO, Inc., priority 2024, dated 2025).
Like-named read-outs stand apart in the source and are kept apart here. Marks after values point to notes of the source that are not given here. Bridge positions count the residues as written; N and C are the ends. Square brackets hold non-standard residues; d marks the D form. Peptide text beside a SMILES is read from it. * marks the point of attachment. Phe(2-CONH2) = NC(=O)c1ccccc1C[C@H](N)C(=O)O; Orn(iPr) = CC(C)NCCC[C@H](N)C(=O)O; Oxazole2carbonyl = O=C(c1ncco1)*; 3Pal = N[C@@H](Cc1cccnc1)C(=O)O

Test: Phase I first-in-human study, pharmacokinetics after single ascending subcutaneous doses in healthy volunteers
Type: in vivo
Details: for level at 2 h: nominal time 2 h; for level at 3 h: nominal time 3 h; for T10nM: time to 10 nM; for T30nM: time to 30 nM; for T100nM: time to 100 nM
Method: For Phase I clinical studies, the 32 mg/mL pharmaceutical composition was dosed subcutaneously. The Phase I clinical trial was a randomised, double-blind, placebo-controlled, first-in-human study of the safety, tolerability and pharmacokinetics of AXN-001 in healthy volunteers under Protocol No. AXN-001-01 .
The pharmacokinetic objective of the clinical trial was to provide pharmacokinetic analysis of AXN-001 following single ascending subcutaneous doses of AXN-001. The study design included the following Cohorts: • Cohort 1: Dose 1 mg (2 mg/mL formulation); • Cohort 2: Dose 2 mg (4 mg/mL formulation); • Cohort 3: Dose 4 mg (8 mg/mL formulation); • Cohort 4: Dose 8 mg (16 mg/mL formulation); • Cohort 5: Dose 16 mg (32 mg/mL formulation).
Participants were administered a single dose (0.5 mL) of AXN-001 or placebo via subcutaneous (SC) injection into the abdomen. Blood samples were collected at specified time points for pharmacokinetic analysis (5,10,15,20,30,45,60 minutes; 2,3,4,6,8,12,24 hours). Individual plasma concentrations of ANX-001 were determined and used for analyses.
Pharmacokinetic (PK) parameters of AXN-001 were determined using Phoenix WinNonlin version 8.3. All concentrations below the limit of quantification (BLQ) were set to zero for the purpose of the PK analysis. All AUC determinations were made using linear trapezoidal method. The following parameters were determined: Cmax Maximum observed concentration. as read directly from the observed data. Tmax Time to maximum concentration T10nM Time to 10 nM T30nM Time to 30 nM T100nM Time to 100 nM AUC0-t Area under the concentration-time curve from time zero to the time of the last measurable concentration, calculated using linear trapezoidal rule AUC0-inf Area under the concentration-time curve from time zero to infinity, calculated using linear trapezoidal rule %AUCextrap The portion of AUC determined by extrapolation t1/2 Apparent terminal elimination half-life CL/F or CL Total apparent body clearance Vz/F or Vz Apparent volume of distribution λz Terminal elimination rate constant

[1] = human, plasma, single SC dose 8 mg, mean, read-out: Plasma Concentration AXN-001
[2] = human, plasma, single SC dose 16 mg, mean
[3] = human, plasma, single SC dose 16 mg, mean, read-out: Plasma Concentration AXN-001

Compound: CC(C)NCCC[C@@H]1NC(=O)[C@@H](NC(=O)[C@H](Cc2ccccc2C(N)=O)NC(=O)[C@H](NC(=O)c2ncco2)C(C)C)CSSC[C@@H](C(=O)N[C@@H](Cc2cccnc2)C(N)=O)NC(=O)[C@H](Cc2ccccc2)NC(=O)[C@@H]2CCCN2C(=O)CNC(=O)[C@H](C(C)C)NC(=O)[C@H](CC(=O)O)NC1=O [AXN-001, Oxazole-2-carbonyl-D-Val-Phe(2-Cbm)-c(Cys-Orn (iPr)-Asp-Val-Gly-Pro-Phe-Cys)-3Pal-NH2] (Oxazole2carbonyl-[dV][Phe(2-CONH2)]C[Orn(iPr)]DVGPFC[3Pal]-NH2; disulfide 3-10)
- level at 2 h [1]: 136 ng/mL
- level at 3 h [1]: 72 ng/mL
- level at 4 h (human, plasma, single SC dose 8 mg, nominal time 4 h, mean, read-out: Plasma Concentration AXN-001): 38.7 ng/mL
- level at 6 h (human, plasma, single SC dose 8 mg, nominal time 6 h, mean, read-out: Plasma Concentration AXN-001): 13.9 ng/mL
- level at 8 h (human, plasma, single SC dose 8 mg, nominal time 8 h, mean, read-out: Plasma Concentration AXN-001): 5.8 ng/mL
- level at 12 h (human, plasma, single SC dose 8 mg, nominal time 12 h, mean, read-out: Plasma Concentration AXN-001): 0.38 ng/mL
- AUC(0-inf) [2]: 1250 ng·h/mL
- AUC(0-t) [2]: 1230 ng·h/mL
- CL/F [2]: 222 mL/min
- Cmax [2]: 381 ng/mL
- Tmax [2]: 0.958 h
- half-life [2]: 2.8 h
- level at 0.08 h (human, plasma, single SC dose 16 mg, nominal time 0.08 h, mean, read-out: Plasma Concentration AXN-001): 27.4 ng/mL
- level at 0.17 h (human, plasma, single SC dose 16 mg, nominal time 0.17 h, mean, read-out: Plasma Concentration AXN-001): 83.4 ng/mL
- level at 0.25 h (human, plasma, single SC dose 16 mg, nominal time 0.25 h, mean, read-out: Plasma Concentration AXN-001): 139 ng/mL
- level at 0.33 h (human, plasma, single SC dose 16 mg, nominal time 0.33 h, mean, read-out: Plasma Concentration AXN-001): 183 ng/mL
- level at 0.5 h (human, plasma, single SC dose 16 mg, nominal time 0.50 h, mean, read-out: Plasma Concentration AXN-001): 294 ng/mL
- level at 0.75 h (human, plasma, single SC dose 16 mg, nominal time 0.75 h, mean, read-out: Plasma Concentration AXN-001): 355 ng/mL
- level at 1 h (human, plasma, single SC dose 16 mg, nominal time 1 h, mean, read-out: Plasma Concentration AXN-001): 380 ng/mL
- level at 2 h [3]: 277 ng/mL
- level at 3 h [3]: 170 ng/mL
- level at 4 h (human, plasma, single SC dose 16 mg, nominal time 4 h, mean, read-out: Plasma Concentration AXN-001): 96.8 ng/mL
- level at 6 h (human, plasma, single SC dose 16 mg, nominal time 6 h, mean, read-out: Plasma Concentration AXN-001): 44 ng/mL
- level at 8 h (human, plasma, single SC dose 16 mg, nominal time 8 h, mean, read-out: Plasma Concentration AXN-001): 23.7 ng/mL
- level at 12 h (human, plasma, single SC dose 16 mg, nominal time 12 h, mean, read-out: Plasma Concentration AXN-001): 9.2 ng/mL
- %AUCextrap (single SC dose 1 mg, mean): 5.37%
- Vz/F (single SC dose 1 mg, mean): 19.1 L
- λz (single SC dose 1 mg, mean): 0.535 h⁻¹
- Plasma Concentration AXN-001 (single SC dose 1 mg, nominal time 0.08 h, mean): 4.96 ng/mL
- Plasma Concentration AXN-001 (single SC dose 1 mg, nominal time 0.17 h, mean): 12.8 ng/mL
- Plasma Concentration AXN-001 (single SC dose 1 mg, nominal time 0.25 h, mean): 17.9 ng/mL
- Plasma Concentration AXN-001 (single SC dose 1 mg, nominal time 0.33 h, mean): 28.5 ng/mL
- Plasma Concentration AXN-001 (single SC dose 1 mg, nominal time 0.50 h, mean): 34.8 ng/mL
- Plasma Concentration AXN-001 (single SC dose 1 mg, nominal time 0.75 h, mean): 39.3 ng/mL
- Plasma Concentration AXN-001 (single SC dose 1 mg, nominal time 4 h, mean): 7.47 ng/mL
- Plasma Concentration AXN-001 (single SC dose 1 mg, nominal time 6 h, mean): 2.8 ng/mL
- Plasma Concentration AXN-001 (single SC dose 1 mg, nominal time 8 h, mean): 0 ng/mL
- Plasma Concentration AXN-001 (single SC dose 1 mg, nominal time 12 h, mean): 0 ng/mL
- T10nM (single SC dose 1 mg): 12 min
- T30nM (single SC dose 1 mg, marked *, 1 of 6 subjects reached 30nM): 19* min
- %AUCextrap (single SC dose 2 mg, mean): 4.98%
- Vz/F (single SC dose 2 mg, mean): 24.6 L
- λz (single SC dose 2 mg, mean): 0.528 h⁻¹
- Plasma Concentration AXN-001 (single SC dose 2 mg, nominal time 12 h, mean): 0 ng/mL
- T10nM (single SC dose 2 mg): 9 min
- T30nM (single SC dose 2 mg, marked *, 5 of 6 subjects reached 30nM): 21* min
- %AUCextrap (single SC dose 4 mg, mean): 1.82%
- Vz/F (single SC dose 4 mg, mean): 23.3 L
- λz (single SC dose 4 mg, mean): 0.517 h⁻¹
- T10nM (single SC dose 4 mg): 6 min
- T30nM (single SC dose 4 mg): 11 min
- T100nM (single SC dose 4 mg, marked *, 2/5 of cohort reached 100nM): 25* min
- %AUCextrap (single SC dose 8 mg, mean): 1.58%
- Vz/F (single SC dose 8 mg, mean): 28.7 L
- λz (single SC dose 8 mg, mean): 0.481 h⁻¹
- T10nM (single SC dose 8 mg): 3 min
- T30nM (single SC dose 8 mg): 7 min
- T100nM (single SC dose 8 mg): 21 min
- %AUCextrap (single SC dose 16 mg, mean): 1.51%
- Vz/F (single SC dose 16 mg, mean): 55.3 L
- λz (single SC dose 16 mg, mean): 0.292 h⁻¹
- T10nM (single SC dose 16 mg): 3 min
- T30nM (single SC dose 16 mg): 7 min
- T100nM (single SC dose 16 mg): 17 min
- free plasma concentration (Figure 5) (within 30 minutes, compared with olcegepant, zavegepant, rimegepant and ubrogepant, consistent up to 120 minutes): much higher increase in free plasma concentration
